Laboratory results from paper PMC11237694, “Novel pentafluorosulfanyl-containing triclocarban analogs selectively kill Gram-positive bacteria” (Microbiology Spectrum, 2024).
Converted amounts (≈) assume the structure as drawn. “Also recorded” adds a separate entry of the source.

Legend:
[1] = system: 10 clinical isolates of MRSA from Foothills Hospital, Calgary; experiment: Planktonic susceptibility (MIC/MBC) of MRSA clinical isolates; type: cell-based, methicillin-resistant S. aureus; details: Staphylococcus aureus
Description: All bacterial strains subjected to testing had been stored at −70°C prior to the experiment. The experiment commenced by streaking small amounts of the frozen bacterial samples onto Muller-Hinton agar (MHA) culture medium (BD Bacto, Oxoid, Basingstoke, UK Cat# X296B) and allowing for overnight incubation. Bacteria were re-cultured on MHA plates as required to confirm colony morphology and lack of contamination. Strains tested were P. aeruginosa ATCC 27853, E. coli ATCC 25922, Staphylococcus aureus ATCC 25923, MRSA ATCC 33591, S. epidermidis ATCC 12228, Klebsiella pneumoniae ATCC, P. mirabilis ATCC 35659, and 10 clinical isolates of MRSA from Foothills Hospital, Calgary, Canada. To prepare for susceptibility testing, a protocol modified from Lemire et al was used ([28]). MHB was swab-inoculated from MHA colonies and shake-incubated until turbid. Dilution of the broth with 0.9% saline was performed as necessary to match a 1.0 McFarland standard.
MIC and MBC assessments were conducted on all bacterial strains using 96-well microtiter plates. To prepare the wells for bacteria, serial dilutions of the antibacterial agents were carried out along the rows of two microtiter plates. The antibacterials were 2-fold diluted with Mueller-Hinton broth (MHB) in each column, reaching a volume of 75 µL. The 1.0 McFarland standard was diluted 15-fold in MHB, and 75 µL of inoculum was added to the wells treated with antibacterials, resulting in a total volume of 150 µL. The microtiter plates were covered and then shake-incubated overnight at 150 rpm and 37°C. MIC was determined based on visible bacterial growth. […] MBC was determined by transferring 3 µL of culture from all MIC microtiter plate wells to 147 µL of Mueller-Hinton broth in fresh plates. These plates were shake-incubated overnight at 150 rpm and 37°C, and bacterial growth was visually inspected.

MRSA strain MW2 = experiment: Intravenous MRSA infection model in mice, CFU enumeration in organs; type: in vivo; details: single i.p. injection 100 µl of 5 mM, 1 hour before or after i.v. infection with 5 × 10^7 CFU MW2; 24 hours
Description: Mice were infected systemically with the community-associated MRSA strain MW2 at an infectious dose of 5 × 10^7 colony-forming units (CFUs) as described ([26]). Treatment groups were injected intraperitoneally with the compound of interest 1 hour before or after infection, with a saline-injected control group. After 24 hours of infection, mice were sacrificed, and blood, peritoneal fluid, spleen, liver, kidney (left), heart, and lungs were harvested for CFU enumeration to determine the bacterial burden in these organs. […] Although disappointing, the lack of promising results in the single-dose treatments may have a variety of reasons, including rapid metabolism and excretion of the compounds by the liver, or the acknowledged intracellular aspect of S. aureus in its infectious cycle ([27]). […] Additionally, investigating the possibility of topical application for these components presents another viable option.
Animal experiments were performed with 6- to 10-week/old adult male mice. Mice were kept in a pathogen-free facility under standardized conditions: temperature of 21–22°C, illumination of 12-hour light–12-hour dark, and access to tap water and food. Experimental animal protocols were approved by the University of Calgary Animal Care Committee and followed the Canadian Council for Animal Care Guidelines.
MW2 Staphylococcus aureus was grown on brain heart infusion (BHI) agar plates (BD biosciences). A single colony was grown overnight in BHI medium (BD biosciences) at 37°C while shaking. Subcultures of […] of the overnight (ON) culture were grown in 3 mL of the same culture medium for 2 hours at 37°C while shaking to reach the exponential growth phase. Bacteria were brought to a concentration of OD660 1.0 in saline. […]
For assessing bacterial by CFU enumeration, the mice were anesthetized with isoflurane (Fresenius Kabi) and washed with 70% ethanol to collect blood and sacrificed to further collect liver, spleen, kidney (left), heart, and lungs. […] Cultures were counted, and CFUs were calculated taking the weight of the organ into account.

P. aeruginosa = experiment: Membrane permeability, propidium iodide staining; type: cell-based, Pseudomonas aeruginosa; details: Gram-negative P. aeruginosa; MIC concentration, 1 hour
Description: For assessing membrane permeability, PI (Invitrogen, Eugene, Oregon, USA) served as the fluorescent reporter dye. Increased PI fluorescence readings are indicative of heightened membrane disruption and permeability, as PI can penetrate cells, bind to DNA, and remain within the cells ([29], [30]). Bacteria were cultured in 3 mL of Mueller-Hinton broth (MHB) and incubated at 37°C for approximately 3 hours in a shaker incubator (150 rpm) until reaching an OD600 (optical density) of 0.08. […] All treated and control groups were incubated at 37°C for 1 hour in a shaker incubator (150 rpm). Ciprofloxacin and gentamycin were employed as internal controls, as they are known not to target the bacterial cell membrane in the initial steps. After incubation, the samples were centrifuged, washed with PBS (10,000 × g for 2 minutes), and bacteria were stained with 0.08 mM PI for 5 minutes at 21°C in the dark. Subsequently, 10 µL of samples were transferred onto slides and examined under a fluorescence microscope (Zeiss Axio Imager Z1) using the same exposure time (640 ms red and 1 s green). Densitometry analysis was conducted using Fiji software (ImageJ).

SMILES | MBC ([1]; MRSA #1 clinical isolate) [µM] | MIC ([1]; MRSA #1 clinical isolate) [µM] | MBC ([1]; MRSA #2 clinical isolate) [µM] | MIC ([1]; MRSA #2 clinical isolate) [µM] | MBC ([1]; MRSA #3 clinical isolate) [µM] | MIC ([1]; MRSA #3 clinical isolate) [µM] | MBC ([1]; MRSA #4 clinical isolate) [µM] | MIC ([1]; MRSA #4 clinical isolate) [µM] | MBC ([1]; MRSA #5 clinical isolate) [µM] | MIC ([1]; MRSA #5 clinical isolate) [µM] | MBC ([1]; MRSA #6 clinical isolate) [µM] | MIC ([1]; MRSA #6 clinical isolate) [µM] | MBC ([1]; MRSA #7 clinical isolate) [µM] | MIC ([1]; MRSA #7 clinical isolate) [µM] | MBC ([1]; MRSA #8 clinical isolate) [µM] | MIC ([1]; MRSA #8 clinical isolate) [µM] | MBC ([1]; MRSA #9 clinical isolate) [µM] | MIC ([1]; MRSA #9 clinical isolate) [µM] | MBC ([1]; MRSA #10 clinical isolate) [µM] | MIC ([1]; MRSA #10 clinical isolate) [µM] | other results
O=C(Nc1ccc(Cl)cc1)Nc1cccc(S(F)(F)(F)(F)F)c1 [EBP-62, 1-(4-chlorophenyl)-3-(3-(pentafluoro-λ^6-sulfanyl)phenyl)urea] | 80 (≈ 29.8 µg/mL) | < 2 | 5 (≈ 1.86 µg/mL) | < 2 | < 2 | < 2 | 20 (≈ 7.45 µg/mL) | < 2 | 20 (≈ 7.45 µg/mL) | < 2 | 5 (≈ 1.86 µg/mL) | < 2 | 10 (≈ 3.73 µg/mL) | 5 (≈ 1.86 µg/mL) | 80 (≈ 29.8 µg/mL) | 5 (≈ 1.86 µg/mL) | 40 (≈ 14.9 µg/mL) | < 2 | 80 (≈ 29.8 µg/mL) | 5 (≈ 1.86 µg/mL) | bacterial burden (CFU) in blood, spleen, liver, kidney, heart, lungs (MRSA strain MW2): failed to reduce bacterial counts; also recorded: not significant
O=C(Nc1ccc(S(F)(F)(F)(F)F)cc1)Nc1ccc(Cl)c(Cl)c1 [EBP-59] | 5 (≈ 2.04 µg/mL) | < 2 | < 2 | < 2 | < 2 | < 2 | 5 (≈ 2.04 µg/mL) | < 2 | 10 (≈ 4.07 µg/mL) | < 2 | < 2 | < 2 | < 2 | < 2 | 5 (≈ 2.04 µg/mL) | < 2 | 20 (≈ 8.14 µg/mL) | < 2 | 40 (≈ 16.3 µg/mL) | < 2 | bacterial burden (CFU) in blood, spleen, liver, kidney, heart, lungs (MRSA strain MW2): failed to reduce bacterial counts; also recorded: not significant; effect on cell membrane (PI staining) (P. aeruginosa): no effect
O=C(Nc1ccc(Cl)cc1)Nc1ccc(S(F)(F)(F)(F)F)cc1 [EPB-61, 1-(4-Chlorophenyl)-3-(4-(pentafluoro-λ^6-sulfanyl)phenyl)urea] | 40 (≈ 14.9 µg/mL) | < 2 | 10 (≈ 3.73 µg/mL) | < 2 | 10 (≈ 3.73 µg/mL) | < 2 | 20 (≈ 7.45 µg/mL) | < 2 | 40 (≈ 14.9 µg/mL) | < 2 | 20 (≈ 7.45 µg/mL) | < 2 | 20 (≈ 7.45 µg/mL) | < 2 | 40 (≈ 14.9 µg/mL) | < 2 | 40 (≈ 14.9 µg/mL) | < 2 | 20 (≈ 7.45 µg/mL) | < 2 | bacterial burden (CFU) in blood, spleen, liver, kidney, heart, lungs (MRSA strain MW2): failed to reduce bacterial counts; also recorded: not significant; effect on cell membrane (PI staining) (P. aeruginosa): no effect
